Measured values from PubChem BioAssay (NCI).
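In this assay, cells in 96-well plates receive the compound at five concentrations for 48 hours. Endpoints are linearly interpolated between the surrounding concentrations. Here, GI50 denotes the concentration required for 50% inhibition of growth. TGI is the concentration that stops growth completely.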

test system: MOLT-4 leukemia; experiment: NCI-60 cell line screen, 48 h

For `O=C1NC2OCC(O)C(O)C2O1` (stereo not given), the TGI was > 100 µM.

test system: NCI-H226 lung; experiment: NCI-60 cell line screen, 48 h

Compound `CC(=O)O.[Au].c1ccc([PH+](c2ccccc2)c2ccccc2)cc1` has a GI50 of 6.59 µM.

Compared with `CC(=O)O.[Au].c1ccc([PH+](c2ccccc2)c2ccccc2)cc1`, `C/C(=C1/CCC/C(=C(/C)c2ccccc2)C1=O)c1ccccc1` is 3-fold higher in TGI: 19.1 µM for the first, 56.5 µM for the second.

Going from `COC(=O)C(=O)C(C(=O)C=C(C)C)C(=O)C(=O)Nc1ccc(C)cc1C` (stereo not given) to `COC(=O)C(=Cc1cc(OC)c(OC)c(OC)c1-c1cc2c(cc1C(C)=O)OCO2)C(=O)OC`, the TGI falls from > 100 µM to 100 µM.

In the case of `CCCS(=O)(=O)/C(=C(\c1ccc(Br)cc1)S(=O)(=O)CCC)c1ccc(Br)cc1`, the TGI is reported as > 10 µM.

test system: NCI-H23 lung; experiment: NCI-60 cell line screen, 48 h

`CC(=O)O.[Au].c1ccc([PH+](c2ccccc2)c2ccccc2)cc1` gave a GI50 of 2.36 µM.

Compared with `CC(=O)O.[Au].c1ccc([PH+](c2ccccc2)c2ccccc2)cc1`, `C/C(=C1/CCC/C(=C(/C)c2ccccc2)C1=O)c1ccccc1` is higher in TGI: 6.89 µM for the first, > 100 µM for the second.

First: COC(=O)C(=O)C(C(=O)C=C(C)C)C(=O)C(=O)Nc1ccc(C)cc1C (stereo not given)
Second: COC(=O)C(=Cc1cc(OC)c(OC)c(OC)c1-c1cc2c(cc1C(C)=O)OCO2)C(=O)OC
The TGI of the first is higher: > 100 µM for the first, 75.9 µM for the second.

`CCCS(=O)(=O)/C(=C(\c1ccc(Br)cc1)S(=O)(=O)CCC)c1ccc(Br)cc1` and `O=C1NC2OCC(O)C(O)C2O1` (stereo not given) cannot be ordered by TGI: > 10 µM for the first, > 100 µM for the second.

test system: NCI-H460 lung; experiment: NCI-60 cell line screen, 48 h

`CC(=O)O.[Au].c1ccc([PH+](c2ccccc2)c2ccccc2)cc1` was tested, and the GI50 was 17.2 µM.

Compared with `CC(=O)O.[Au].c1ccc([PH+](c2ccccc2)c2ccccc2)cc1`, `C/C(=C1/CCC/C(=C(/C)c2ccccc2)C1=O)c1ccccc1` is higher in TGI: 74.7 µM for the first, > 100 µM for the second.

`COC(=O)C(=O)C(C(=O)C=C(C)C)C(=O)C(=O)Nc1ccc(C)cc1C` (stereo not given) and `COC(=O)C(=Cc1cc(OC)c(OC)c(OC)c1-c1cc2c(cc1C(C)=O)OCO2)C(=O)OC` cannot be ordered by TGI: > 100 µM for the first, > 211 µM for the second.

`CCCS(=O)(=O)/C(=C(\c1ccc(Br)cc1)S(=O)(=O)CCC)c1ccc(Br)cc1` and `O=C1NC2OCC(O)C(O)C2O1` (stereo not given) cannot be ordered by TGI: > 10 µM for the first, > 100 µM for the second.

test system: NCI-H522 lung; experiment: NCI-60 cell line screen, 48 h

In the case of `CC(=O)O.[Au].c1ccc([PH+](c2ccccc2)c2ccccc2)cc1`, the GI50 is reported as 0.526 µM.

Going from `CC(=O)O.[Au].c1ccc([PH+](c2ccccc2)c2ccccc2)cc1` to `C/C(=C1/CCC/C(=C(/C)c2ccccc2)C1=O)c1ccccc1`, the TGI rises from 1.96 µM to > 100 µM.

Going from `COC(=O)C(=O)C(C(=O)C=C(C)C)C(=O)C(=O)Nc1ccc(C)cc1C` (stereo not given) to `COC(=O)C(=Cc1cc(OC)c(OC)c(OC)c1-c1cc2c(cc1C(C)=O)OCO2)C(=O)OC`, the TGI falls from > 100 µM to 62.2 µM.

`CCCS(=O)(=O)/C(=C(\c1ccc(Br)cc1)S(=O)(=O)CCC)c1ccc(Br)cc1` and `O=C1NC2OCC(O)C(O)C2O1` (stereo not given) cannot be ordered by TGI: > 10 µM for the first, > 100 µM for the second.

test system: OVCAR-3 ovarian; experiment: NCI-60 cell line screen, 48 h

For `CC(=O)O.[Au].c1ccc([PH+](c2ccccc2)c2ccccc2)cc1`, the GI50 was 2.43 µM.

Compared with `CC(=O)O.[Au].c1ccc([PH+](c2ccccc2)c2ccccc2)cc1`, `C/C(=C1/CCC/C(=C(/C)c2ccccc2)C1=O)c1ccccc1` is higher in TGI: 5.52 µM for the first, > 100 µM for the second.

First: COC(=O)C(=O)C(C(=O)C=C(C)C)C(=O)C(=O)Nc1ccc(C)cc1C (stereo not given)
Second: COC(=O)C(=Cc1cc(OC)c(OC)c(OC)c1-c1cc2c(cc1C(C)=O)OCO2)C(=O)OC
The TGI of the first is higher: > 100 µM for the first, 56.2 µM for the second.

`CCCS(=O)(=O)/C(=C(\c1ccc(Br)cc1)S(=O)(=O)CCC)c1ccc(Br)cc1` and `O=C1NC2OCC(O)C(O)C2O1` (stereo not given) cannot be ordered by TGI: > 10 µM for the first, > 100 µM for the second.

test system: OVCAR-4 ovarian; experiment: NCI-60 cell line screen, 48 h

`CC(=O)O.[Au].c1ccc([PH+](c2ccccc2)c2ccccc2)cc1` showed a GI50 of 2 µM.

Compared with `CC(=O)O.[Au].c1ccc([PH+](c2ccccc2)c2ccccc2)cc1`, `C/C(=C1/CCC/C(=C(/C)c2ccccc2)C1=O)c1ccccc1` is higher in TGI: 5.02 µM for the first, > 100 µM for the second.

`COC(=O)C(=O)C(C(=O)C=C(C)C)C(=O)C(=O)Nc1ccc(C)cc1C` (stereo not given) and `CCCS(=O)(=O)/C(=C(\c1ccc(Br)cc1)S(=O)(=O)CCC)c1ccc(Br)cc1` cannot be ordered by TGI: > 100 µM for the first, > 10 µM for the second.

In the case of `O=C1NC2OCC(O)C(O)C2O1` (stereo not given), the TGI is reported as > 100 µM.

test system: OVCAR-5 ovarian; experiment: NCI-60 cell line screen, 48 h

`CC(=O)O.[Au].c1ccc([PH+](c2ccccc2)c2ccccc2)cc1` was tested, and the GI50 was 14.4 µM.

Compared with `CC(=O)O.[Au].c1ccc([PH+](c2ccccc2)c2ccccc2)cc1`, `C/C(=C1/CCC/C(=C(/C)c2ccccc2)C1=O)c1ccccc1` is higher in TGI: 28.6 µM for the first, > 100 µM for the second.

Compared with `COC(=O)C(=O)C(C(=O)C=C(C)C)C(=O)C(=O)Nc1ccc(C)cc1C` (stereo not given), `COC(=O)C(=Cc1cc(OC)c(OC)c(OC)c1-c1cc2c(cc1C(C)=O)OCO2)C(=O)OC` is lower in TGI: > 100 µM for the first, 74.1 µM for the second.

`CCCS(=O)(=O)/C(=C(\c1ccc(Br)cc1)S(=O)(=O)CCC)c1ccc(Br)cc1` and `O=C1NC2OCC(O)C(O)C2O1` (stereo not given) cannot be ordered by TGI: > 10 µM for the first, > 100 µM for the second.

test system: OVCAR-8 ovarian; experiment: NCI-60 cell line screen, 48 h

In the case of `CC(=O)O.[Au].c1ccc([PH+](c2ccccc2)c2ccccc2)cc1`, the GI50 is reported as 5.45 µM.

Going from `CC(=O)O.[Au].c1ccc([PH+](c2ccccc2)c2ccccc2)cc1` to `C/C(=C1/CCC/C(=C(/C)c2ccccc2)C1=O)c1ccccc1`, the TGI rises from 26.3 µM to > 100 µM.

`COC(=O)C(=O)C(C(=O)C=C(C)C)C(=O)C(=O)Nc1ccc(C)cc1C` (stereo not given) and `COC(=O)C(=Cc1cc(OC)c(OC)c(OC)c1-c1cc2c(cc1C(C)=O)OCO2)C(=O)OC` cannot be ordered by TGI: > 100 µM for the first, > 211 µM for the second.

`CCCS(=O)(=O)/C(=C(\c1ccc(Br)cc1)S(=O)(=O)CCC)c1ccc(Br)cc1` and `O=C1NC2OCC(O)C(O)C2O1` (stereo not given) cannot be ordered by TGI: > 10 µM for the first, > 100 µM for the second.

test system: RPMI-8226 leukemia; experiment: NCI-60 cell line screen, 48 h

With `CC(=O)O.[Au].c1ccc([PH+](c2ccccc2)c2ccccc2)cc1` the GI50 was 1.32 µM.

First: CC(=O)O.[Au].c1ccc([PH+](c2ccccc2)c2ccccc2)cc1
Second: C/C(=C1/CCC/C(=C(/C)c2ccccc2)C1=O)c1ccccc1
The TGI of the first is lower: 4.46 µM for the first, > 100 µM for the second.

`COC(=O)C(=O)C(C(=O)C=C(C)C)C(=O)C(=O)Nc1ccc(C)cc1C` (stereo not given) and `COC(=O)C(=Cc1cc(OC)c(OC)c(OC)c1-c1cc2c(cc1C(C)=O)OCO2)C(=O)OC` cannot be ordered by TGI: > 100 µM for the first, > 211 µM for the second.

In the case of `CCCS(=O)(=O)/C(=C(\c1ccc(Br)cc1)S(=O)(=O)CCC)c1ccc(Br)cc1`, the TGI is reported as > 10 µM.

test system: RXF 393 renal; experiment: NCI-60 cell line screen, 48 h

`CC(=O)O.[Au].c1ccc([PH+](c2ccccc2)c2ccccc2)cc1` gave a GI50 of 1.42 µM.

First: CC(=O)O.[Au].c1ccc([PH+](c2ccccc2)c2ccccc2)cc1
Second: C/C(=C1/CCC/C(=C(/C)c2ccccc2)C1=O)c1ccccc1
The TGI of the first is 17-fold lower: 2.86 µM for the first, 47.6 µM for the second.

Going from `COC(=O)C(=O)C(C(=O)C=C(C)C)C(=O)C(=O)Nc1ccc(C)cc1C` (stereo not given) to `COC(=O)C(=Cc1cc(OC)c(OC)c(OC)c1-c1cc2c(cc1C(C)=O)OCO2)C(=O)OC`, the TGI falls from > 100 µM to 63.7 µM.

In the case of `CCCS(=O)(=O)/C(=C(\c1ccc(Br)cc1)S(=O)(=O)CCC)c1ccc(Br)cc1`, the TGI is reported as > 10 µM.

test system: SF-268 CNS; experiment: NCI-60 cell line screen, 48 h

`CC(=O)O.[Au].c1ccc([PH+](c2ccccc2)c2ccccc2)cc1` showed a GI50 of 3.05 µM.

Compared with `CC(=O)O.[Au].c1ccc([PH+](c2ccccc2)c2ccccc2)cc1`, `C/C(=C1/CCC/C(=C(/C)c2ccccc2)C1=O)c1ccccc1` is higher in TGI: 11.5 µM for the first, > 100 µM for the second.

`COC(=O)C(=O)C(C(=O)C=C(C)C)C(=O)C(=O)Nc1ccc(C)cc1C` (stereo not given) and `COC(=O)C(=Cc1cc(OC)c(OC)c(OC)c1-c1cc2c(cc1C(C)=O)OCO2)C(=O)OC` cannot be ordered by TGI: > 100 µM for the first, 133 µM for the second.

`CCCS(=O)(=O)/C(=C(\c1ccc(Br)cc1)S(=O)(=O)CCC)c1ccc(Br)cc1` and `O=C1NC2OCC(O)C(O)C2O1` (stereo not given) cannot be ordered by TGI: > 10 µM for the first, > 100 µM for the second.

test system: SF-295 CNS; experiment: NCI-60 cell line screen, 48 h

Compound `CC(=O)O.[Au].c1ccc([PH+](c2ccccc2)c2ccccc2)cc1` has a GI50 of 2.89 µM.

`CC(=O)O.[Au].c1ccc([PH+](c2ccccc2)c2ccccc2)cc1` and `C/C(=C1/CCC/C(=C(/C)c2ccccc2)C1=O)c1ccccc1` cannot be ordered by TGI: > 100 µM for the first, > 100 µM for the second.

`COC(=O)C(=O)C(C(=O)C=C(C)C)C(=O)C(=O)Nc1ccc(C)cc1C` (stereo not given) and `COC(=O)C(=Cc1cc(OC)c(OC)c(OC)c1-c1cc2c(cc1C(C)=O)OCO2)C(=O)OC` cannot be ordered by TGI: > 100 µM for the first, 102 µM for the second.

`CCCS(=O)(=O)/C(=C(\c1ccc(Br)cc1)S(=O)(=O)CCC)c1ccc(Br)cc1` and `O=C1NC2OCC(O)C(O)C2O1` (stereo not given) cannot be ordered by TGI: > 10 µM for the first, > 100 µM for the second.

test system: SF-539 CNS; experiment: NCI-60 cell line screen, 48 h

With `CC(=O)O.[Au].c1ccc([PH+](c2ccccc2)c2ccccc2)cc1` the GI50 was 8.6 µM.

Compared with `CC(=O)O.[Au].c1ccc([PH+](c2ccccc2)c2ccccc2)cc1`, `C/C(=C1/CCC/C(=C(/C)c2ccccc2)C1=O)c1ccccc1` is higher in TGI: 23.2 µM for the first, > 100 µM for the second.

Going from `COC(=O)C(=O)C(C(=O)C=C(C)C)C(=O)C(=O)Nc1ccc(C)cc1C` (stereo not given) to `COC(=O)C(=Cc1cc(OC)c(OC)c(OC)c1-c1cc2c(cc1C(C)=O)OCO2)C(=O)OC`, the TGI falls from > 100 µM to 88.2 µM.

`CCCS(=O)(=O)/C(=C(\c1ccc(Br)cc1)S(=O)(=O)CCC)c1ccc(Br)cc1` and `O=C1NC2OCC(O)C(O)C2O1` (stereo not given) cannot be ordered by TGI: > 10 µM for the first, > 100 µM for the second.

test system: SK-MEL-2 melanoma; experiment: NCI-60 cell line screen, 48 h

Compound `CC(=O)O.[Au].c1ccc([PH+](c2ccccc2)c2ccccc2)cc1` has a GI50 of 3.24 µM.

First: CC(=O)O.[Au].c1ccc([PH+](c2ccccc2)c2ccccc2)cc1
Second: C/C(=C1/CCC/C(=C(/C)c2ccccc2)C1=O)c1ccccc1
The TGI of the first is 4.6-fold lower: 8.47 µM for the first, 38.7 µM for the second.

Compared with `COC(=O)C(=O)C(C(=O)C=C(C)C)C(=O)C(=O)Nc1ccc(C)cc1C` (stereo not given), `COC(=O)C(=Cc1cc(OC)c(OC)c(OC)c1-c1cc2c(cc1C(C)=O)OCO2)C(=O)OC` is lower in TGI: > 100 µM for the first, 61.7 µM for the second.

`CCCS(=O)(=O)/C(=C(\c1ccc(Br)cc1)S(=O)(=O)CCC)c1ccc(Br)cc1` and `O=C1NC2OCC(O)C(O)C2O1` (stereo not given) cannot be ordered by TGI: > 10 µM for the first, > 100 µM for the second.
